# Laboratory results as given in patent US20230279433A1, “METHODS AND COMPOSITIONS FOR THE PRODUCTION OF ADENO-ASSOCIATED VIRUS” (priority 2021, published 2023).
# Key:
# Format in all cases: cell-based
# [1] = tested on: AAV producer cells (HEK293 cells); experiment: AAV productivity with culture media additives supplemented two hours post-transfection (shake flasks)
# Protocol: For each parameter tested, HEK293 cells were expanded by shake flask culture with a target seed density of >0.25E6 viable cells/mL and a target final density of <6E6 viable cells/mL. […]
# (§1) Cell transfection was performed generally as described in Grieger et al. (2016) Molecular Therapy 24(2): 287-297. Briefly, transfection mixes were prepared by mixing calculated volumes of vector(s), transfection media, and polyethylenimine (PEI), all at ambient temperature, and allowed to equilibrate before the transfection mixes were added to the cells. Post-transfection bioreactor setpoint shifts were performed 2 hours post-transfection, and cells were harvested 72 hours post-transfection. […] Productivity was measured by vector genome titer and capsid yield. Vector genome (VG) titer was determined by droplet digital PCR (ddPCR) by standard methods using primer/probe sets specific to the transgene payload of the vector comprising the transgene. Capsid yield was determined using enzyme-linked immunosorbent assays (ELISAs) by standard methods with an immobilized antibody directed against an epitope of the capsid as encoded by the vector comprising the capsid sequences. Percentage of intact vector genomes (% Full capsids) was calculated by dividing the vector genome productivity determined by ddPCR by the number of capsids determined by ELISA. […]
# [2] = tested on: second HEK293 cell line; experiment: AAV productivity with DMSO supplementation 30-120 minutes post-transfection, 3 L single-use bioreactors; settings: DMSO 120 minutes vs 30 minutes post-transfection, pH 7.0, 39° C.
# Protocol: (§2) Cell transfection was performed generally as described in Grieger et al. (2016) Molecular Therapy 24(2): 287-297. Briefly, transfection mixes were prepared by mixing calculated volumes of vector(s), transfection media, and polyethylenimine (PEI), all at ambient temperature, and allowed to equilibrate before the transfection mixes were added to the cells. Post-transfection bioreactor setpoint shifts were performed 2 hours post-transfection, and cells were harvested 72 hours post-transfection. Harvested cells were lysed as described in Grieger et al. (2016) Molecular Therapy 24(2): 287-297. Crude lysate samples were collected following centrifugation to remove cellular debris. Productivity was measured by vector genome titer and capsid yield. Vector genome (VG) titer was determined by droplet digital PCR (ddPCR) by standard methods using primer/probe sets specific to the transgene payload of the vector comprising the transgene. Capsid yield was determined using enzyme-linked immunosorbent assays (ELISAs) by standard methods with an immobilized antibody directed against an epitope of the capsid as encoded by the vector comprising the capsid sequences. Percentage of intact vector genomes (% Full capsids) was calculated by dividing the vector genome productivity determined by ddPCR by the number of capsids determined by ELISA.
# Based on the findings above, the effects of post-transfection pH, and the effect of supplementing the culture media with DMSO at 30-120 minutes post-transfection were further tested using a different representative AAV particle. Experiments were performed with a second HEK293 cell line according to the methods described in Examples 1 and 5 using 3 L single-use bioreactors.
# AAV productivity, in terms of vector genome (VG) titer (FIG. 8A), capsid yield (FIG. 8B), and percent intact vector genomes (% Full; FIG. 8C), was measured as described in Example 1.
# [3] = tested on: AAV producer cells (HEK293 cells); experiment: DMSO time course analysis of AAV productivity; settings: 1.5% (v/v) DMSO added two hours pre-transfection and up to 30 minutes post-transfection; compared to the other time points tested
# Protocol: For each parameter tested, HEK293 cells were expanded by shake flask culture with a target seed density of >0.25E6 viable cells/mL and a target final density of <6E6 viable cells/mL. Expanded cells were inoculated into an Applikon 3 L Glass Bioreactor containing the appropriate amount of cell culture medium prior to transfection at a 2 L working volume.
# as §1, with “cells.” for “cells. Post-transfection bioreactor setpoint shifts were performed 2 hours post-transfection, and cells were harvested 72 hours post-transfection.”
# [4] = tested on: second HEK293 cell line; experiment: AAV productivity at different DMSO concentrations, shake flasks
# Protocol: as §2
# The conditions of DMSO supplementation were further tested using different representative AAV particles. Experiments were performed with a second HEK293 cell line according to the methods described in Example 1 using shake flasks.
# AAV productivity, in terms of vector genome (VG) titer (FIGS. 9A and 10A), capsid yield (FIGS. 9B and 10B), and percent intact vector genomes (% Full; FIGS. 9C and 10C), was measured as described in Example 1.
structure (smiles),measurement,setting,value
"C[S+](C)[O-] [DMSO, dimethyl sulfoxide]",percent full capsids,"[1]; DMSO added two hours post-transfection, compared to the other additives",higher percent full capsids
same,VG titer,"[1]; additive added two hours post-transfection, all tested concentrations (Table 5), over control conditions without additive, ddPCR, crude lysate",general increase
same,VG titers,[2],similar
same,capsid yields,[2],similar
same,intact vector genomes,[2],similar
same,percent yield of full capsids,[3],higher percent yield of full capsids
same,VG titer,"[4]; FIG. 9A, 0.5% to 2.25% DMSO two hours post-transfection, up to a DMSO concentration of 1.5%",increased
same,capsid titer,"[4]; FIG. 9B, 0.5% to 2.25% DMSO two hours post-transfection, up to a DMSO concentration of 1.5%",increased or comparable
same,percent full capsids,"[4]; FIG. 9C, 0.5% to 2.25% DMSO two hours post-transfection",increased
same,VG titer,"[4]; FIG. 10A, 0.75% DMSO two hours post-transfection compared with 0% DMSO",increased
same,VG titer,"[4]; FIG. 10A, 1.5% DMSO two hours post-transfection compared with 0.75% DMSO",comparable
same,capsid titer,"[4]; FIG. 10B, 0.75% DMSO two hours post-transfection compared with 0% DMSO",increased
same,capsid titer,"[4]; FIG. 10B, 1.5% DMSO two hours post-transfection compared with 0.75% DMSO",decreased
same,percent full capsids,"[4]; FIG. 10C, 0.75% DMSO two hours post-transfection compared with 0% DMSO",comparable
same,percent full capsids,"[4]; FIG. 10C, 1.5% DMSO two hours post-transfection compared with 0.75% DMSO",increased
